From US20150018369A1 (priority 2012, published 2015)

Columns and labels:
(HEK293 cells) = experiment: [3H]-WIN55212-2 binding competition in HEK293 cells; parameters: species or system human; conditions: FIG. 2c
Method: Cells were grown to 90% confluence, rinsed twice with 1× PBS and stored at −80° C. until further use. To prepare crude cellular membrane fractions, dishes were removed from −80° C. and thawed at room temperature for 5 min. Once thawed, cells were lysed with ice-cold homogenization buffer (50 mM Tris, 1 mM EDTA, 3 mM MgCl2) and gently scraped from the dish. Total cell lysates from 3-5 dishes were collected on ice in 3 ml of ice-cold homogenization buffer Cells were homogenized at 6,500 rpm (PRO Scientific, Oxford, Conn.) twice for 10 sec and centrifuged at 11,500 rpm for 20 min at 4° C. Supernatants were discarded and cell pellets were resuspended in homogenization buffer and tris rated 10 times in ice-cold homogenization buffer. Crude cellular membrane homogenates were stored at −80° C. until further use. […]
Due to the lipophillic nature of the tested compounds, all experiments were performed in silanized glass test tubes (Alltech, Deerfield, Ill.) with silanized pipette tips (VWR Scientific, Brisbane, Calif.) to reduce the loss of ligands. […] For competition binding assays, specific binding was calculated by subtracting the average dpm (disintegrations per minute, dpm) if non-specific points from the individual dpm values for each total binding point and expressed as either fmol/mg for saturation analyses or as a percent of total radioligand binding in competition curves. […]

[1] = tested on: AI receptors (mouse microglia in primary culture); experiment: [3H]-WIN55212 binding in mouse microglia
[2] = tested on: mouse microglia in primary culture; experiment: cAMP production in mouse microglia; assay type: cell-based
[3] = tested on: mouse microglia in primary culture; experiment: NO production in mouse microglia; assay type: cell-based
[4] = tested on: mouse microglia in primary culture; experiment: Cell viability in mouse microglia; assay type: cell-based

CCn1c(C)c(C(=O)c2ccc(C)c3ccccc23)c2ccccc21 [ST-11]
competition for [3H]-WIN55212-2 binding ((HEK293 cells)): competes
competition for [3H]-WIN55212 binding [1]: competed
cAMP production stimulated by Isoproterenol [2]: inhibits cAMP production
NO production [3]: does not stimulate or inhibit
cell viability in microglia [4]: does not
